Test results published in US6521627B1, “5-Iodo-4-phenethylaminopyrimidine derivative, intermediate thereof, processes for producing the same and agricultural and horticultural pesticides” (UBE Industries, Ltd., priority 1998, dated 2003).

Experiments:
tobacco cutworm = assay: Test of effect on tobacco cutworm; type: in vivo, tobacco cutworm (2nd instar larvae); settings: wettable powder diluted to 500 ppm; soybean leaves dipped for 30 seconds; 25° C., after 2 days
Experimental: (6) Test of effect on tobacco cutworm The respective wettable powders of Compounds (1) shown in Table 2 prepared as in Example 3 were diluted to 500 ppm with water containing a surfactant (0.01%), and in these respective chemical solutions, leave of soybean were dipped for 30 seconds. After air-drying, each of the leave was put into the respective plastic cups, 10 tobacco cutworm (2nd instar larvae) were placed in the respective cups, and put the lids on them and they were left to stand in a thermostat chamber at 25° C. After 2 days, insecticidal rate was determined by counting living and dead insects in the respective cups.

[1] = system: southern root knot nematodes; assay: Test of effect on southern root knot nematodes; type: in vivo, southern potato root knot nematodes; settings: wettable powder diluted to 300 ppm, 0.1 ml plus 0.9 ml solution containing 500 nematodes; 25° C., after 2 days
Experimental: (1) Test of effect on southern root knot nematodes The respective wettable powders of Compounds (1) shown in Table 2 prepared as in Example 3 were diluted to 300 ppm with water, 0.1 ml of which is taken into the test tubes, and 0.9 ml of a solution containing 500 southern potato root knot nematodes was added thereto, respectively. Subsequently, these test tubes were left to stand in a thermostat chamber at 25° C., and after 2 days, nematodecidal rate was determined by observing with microscope.

green rice leafhopper = assay: Test of effect on green rice leafhopper; type: in vivo, green rice leafhoppers (4th instar larvae); settings: wettable powder diluted to 300 ppm; young seedlings of rice dipped for 30 seconds; 25° C., after 4 days
Experimental: (§1) (5) Test of effect on green rice leafhopper The respective wettable powders of Compounds (1) shown in Table 2 prepared as in Example 3 were diluted to 300 ppm with water containing a surfactant (0.01%), and in these respective chemical solutions, young seedlings of rice were dipped for 30 seconds, and after air-drying, each was put into the respective glass cylinders. Subsequently, 10 green rice leafhoppers (4th instar larvae) were placed in the respective glass cylinders, and porous stoppers were each placed on them and they were left to stand in a thermostat chamber at 25° C., and after 4 days, insecticidal rate was determined by counting living and dead insects in the respective cylinders.

brown rice planthopper = assay: Test of effect on brown rice planthopper; type: in vivo, brown rice planthoppers (4th instar larvae); settings: wettable powder diluted to 300 ppm; young seedlings of rice dipped for 30 seconds; 25° C., after 4 days
Experimental: as §1, with “(4)” for “(5)”, “brown” for “green”, “planthopper” for “leafhopper”, “planthoppers” for “leafhoppers”

diamondback moth = assay: Test of effect on diamondback moth; type: in vivo, diamondback moths (3rd instar larvae); settings: wettable powder diluted to 300 ppm; cabbage leaves dipped for 30 seconds; 25° C., after 2 days
Experimental: (3) Test of effect on diamondback moth The respective wettable powders of Compounds (1) shown in Table 2 prepared as in Example 3 were diluted to 300 ppm with water containing a surfactant (0.01%), and in these respective chemical solutions, cabbage leaves (5×5 cm) were dipped for 30 seconds, and each leaf was put into the respective plastic cups and air-dried. Subsequently, 10 diamondback moths (3rd instar larvae) were placed in the respective cups, and put the lids on them and they were left to stand in a thermostat chamber at 25° C., and after 2 days, insecticidal rate was determined by counting living and dead insects in the respective cups.

| Compound | melting point [°C] | insecticidal effect (insecticidal rate) (tobacco cutworm) [%] | nematodecidal effect (nematodecidal rate) [1] [%] | insecticidal effect (insecticidal rate) (green rice leafhopper) [%] | insecticidal effect (insecticidal rate) (brown rice planthopper) [%] | insecticidal effect (insecticidal rate) (diamondback moth) [%] |
| --- | --- | --- | --- | --- | --- | --- |
| CC(=O)OC(C)c1ncnc(NCCc2ccc(OC(F)(F)F)cc2)c1I (centres unmarked) [1-(21), 6-(1-acetoxyethyl)-5-iodo-4-[2-(4-trifluoromethoxyphenyl)ethylamino]pyrimidine] | 77 to 79 |  |  |  |  |  |
| CC(F)c1ncnc(NCCc2ccc(OC(F)(F)F)cc2)c1I (centres unmarked) [1-(23), 6-(1-fluoroethyl)-5-iodo-4-[2-(4-trifluoromethoxyphenyl)ethylamino]pyrimidine] |  | 100 | 100 | 100 | 100 | 100 |
| CC(F)c1ncnc(NCCc2ccccc2)c1I (centres unmarked) [Compound 1-(1), 6-(1-fluoroethyl)-5-iodo-4-(2-phenylethylamino)pyrimidine] |  |  | 100 | 100 | 100 | 100 |
| CC(Cl)c1ncnc(NCCc2ccccc2)c1I (centres unmarked) [Compound 1-(2), 6-(1-chloroethyl)-5-iodo-4-(2-phenylethylamino)pyrimidine] | 101 to 102 |  |  |  |  |  |
| CC(=O)OC(C)c1ncnc(NCCc2ccccc2)c1I (stereo not drawn) [Compound 1-(3), 6-(l-acetoxyethyl)-5-iodo-4-(2-phenylethylamino)pyrimidine] |  |  |  |  |  | 100 |
| CC(F)c1ncnc(NCCc2ccc(F)cc2)c1I (centres unmarked) [Compound 1-(5), 6-(1-fluoroethyl)-5-iodo-4-[2-(4-fluorophenyl)ethylamino]pyrimidine] |  | 100 | 100 | 100 | 100 | 100 |
